Source: ChEMBL document CHEMBL1148386, “(2S,1'S,2'R,3'R)-2-(2'-Carboxy-3'-hydroxymethylcyclopropyl) glycine is a highly potent group 2 and 3 metabotropic glutamate receptor agonist with oral activity” (J Med Chem, 2004)

Assays:
[1] = target: Metabotropic glutamate receptor 5 (Rattus norvegicus, UniProt P31424); assay: Metabotropic glutamate receptor 5 agonist activity as basal [3H]- IP formation in rat; type: functional
[2] = target: Metabotropic glutamate receptor 1 (Rattus norvegicus, UniProt P23385); assay: Metabotropic glutamate receptor 1 agonist activity as basal [3H]- IP formation in rat; type: functional
[3] = target: T1, Metabotropic glutamate receptor 6 (Rattus norvegicus, UniProt P35349); assay: Metabotropic glutamate receptor 6 agonist activity to influence forskolin stimulated c-AMP formation in rat non neuronal cells; type: functional, cell-based
[4] = target: Metabotropic glutamate receptor 3 (Rattus norvegicus, UniProt P31422); assay: Metabotropic glutamate receptor 3 agonist activity against forskolin stimulated c-AMP formation in rat non neuronal cells; type: functional, cell-based
[5] = target: T2, Metabotropic glutamate receptor 8 (Rattus norvegicus, UniProt P70579); assay: Metabotropic glutamate receptor 8 agonist activity against forskolin stimulated c-AMP formation in rat non neuronal cells; type: functional, cell-based
[6] = target: T3, Metabotropic glutamate receptor 7 (Rattus norvegicus, UniProt P35400); assay: Metabotropic glutamate receptor 7 agonist activity to influence forskolin stimulated c-AMP formation in rat non neuronal cells; type: functional, cell-based
[7] = target: Metabotropic glutamate receptor 2 (Rattus norvegicus, UniProt P31421); assay: Metabotropic glutamate receptor 2 agonist activity against forskolin stimulated c-AMP formation in rat non neuronal cells; type: functional, cell-based
[8] = target: T4, Metabotropic glutamate receptor 4 (Rattus norvegicus, UniProt P31423); assay: Metabotropic glutamate receptor 4 agonist activity to influence forskolin stimulated c-AMP formation in rat non neuronal cells; type: functional, cell-based
[9] = target: T3, Metabotropic glutamate receptor 7; assay: Metabotropic glutamate receptor 7 antagonist activity to influence forskolin stimulated c-AMP formation in rat non neuronal cells; type: functional, cell-based
[10] = target: T4, Metabotropic glutamate receptor 4; assay: Metabotropic glutamate receptor 4 antagonist activity to influence forskolin stimulated c-AMP formation in rat non neuronal cells; type: functional, cell-based
[11] = target: T2, Metabotropic glutamate receptor 8; assay: Metabotropic glutamate receptor 8 antagonist activity to influence forskolin stimulated c-AMP formation in rat non neuronal cells; type: functional, cell-based
[12] = target: T1, Metabotropic glutamate receptor 6; assay: Metabotropic glutamate receptor 6 antagonist activity to influence forskolin stimulated c-AMP formation in rat non neuronal cells; type: functional, cell-based

Sequence of Metabotropic glutamate receptor 3 (P31422 whole entry): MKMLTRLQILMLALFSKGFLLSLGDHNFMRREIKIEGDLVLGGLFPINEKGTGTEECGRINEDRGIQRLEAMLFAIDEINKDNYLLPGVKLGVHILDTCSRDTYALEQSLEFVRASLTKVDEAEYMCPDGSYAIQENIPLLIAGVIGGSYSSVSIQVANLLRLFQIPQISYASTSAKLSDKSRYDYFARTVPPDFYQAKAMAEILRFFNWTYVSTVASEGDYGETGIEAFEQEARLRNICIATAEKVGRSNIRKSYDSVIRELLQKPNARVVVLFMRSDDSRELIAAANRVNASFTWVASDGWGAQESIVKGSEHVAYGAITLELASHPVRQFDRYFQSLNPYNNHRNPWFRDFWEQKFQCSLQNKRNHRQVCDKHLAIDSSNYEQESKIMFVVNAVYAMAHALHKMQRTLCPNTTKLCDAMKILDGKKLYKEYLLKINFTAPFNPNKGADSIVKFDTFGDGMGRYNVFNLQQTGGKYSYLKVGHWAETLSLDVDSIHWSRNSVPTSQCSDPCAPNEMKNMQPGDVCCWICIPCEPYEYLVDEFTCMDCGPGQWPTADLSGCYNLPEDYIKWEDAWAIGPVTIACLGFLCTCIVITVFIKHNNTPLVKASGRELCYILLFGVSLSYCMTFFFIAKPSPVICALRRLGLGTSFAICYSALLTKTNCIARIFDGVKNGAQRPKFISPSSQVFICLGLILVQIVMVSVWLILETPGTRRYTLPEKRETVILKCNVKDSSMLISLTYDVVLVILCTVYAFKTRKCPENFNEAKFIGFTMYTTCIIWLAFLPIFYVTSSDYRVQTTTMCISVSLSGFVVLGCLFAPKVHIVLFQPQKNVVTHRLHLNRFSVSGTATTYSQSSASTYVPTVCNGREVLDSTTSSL
T3 sequence (P35400 whole entry): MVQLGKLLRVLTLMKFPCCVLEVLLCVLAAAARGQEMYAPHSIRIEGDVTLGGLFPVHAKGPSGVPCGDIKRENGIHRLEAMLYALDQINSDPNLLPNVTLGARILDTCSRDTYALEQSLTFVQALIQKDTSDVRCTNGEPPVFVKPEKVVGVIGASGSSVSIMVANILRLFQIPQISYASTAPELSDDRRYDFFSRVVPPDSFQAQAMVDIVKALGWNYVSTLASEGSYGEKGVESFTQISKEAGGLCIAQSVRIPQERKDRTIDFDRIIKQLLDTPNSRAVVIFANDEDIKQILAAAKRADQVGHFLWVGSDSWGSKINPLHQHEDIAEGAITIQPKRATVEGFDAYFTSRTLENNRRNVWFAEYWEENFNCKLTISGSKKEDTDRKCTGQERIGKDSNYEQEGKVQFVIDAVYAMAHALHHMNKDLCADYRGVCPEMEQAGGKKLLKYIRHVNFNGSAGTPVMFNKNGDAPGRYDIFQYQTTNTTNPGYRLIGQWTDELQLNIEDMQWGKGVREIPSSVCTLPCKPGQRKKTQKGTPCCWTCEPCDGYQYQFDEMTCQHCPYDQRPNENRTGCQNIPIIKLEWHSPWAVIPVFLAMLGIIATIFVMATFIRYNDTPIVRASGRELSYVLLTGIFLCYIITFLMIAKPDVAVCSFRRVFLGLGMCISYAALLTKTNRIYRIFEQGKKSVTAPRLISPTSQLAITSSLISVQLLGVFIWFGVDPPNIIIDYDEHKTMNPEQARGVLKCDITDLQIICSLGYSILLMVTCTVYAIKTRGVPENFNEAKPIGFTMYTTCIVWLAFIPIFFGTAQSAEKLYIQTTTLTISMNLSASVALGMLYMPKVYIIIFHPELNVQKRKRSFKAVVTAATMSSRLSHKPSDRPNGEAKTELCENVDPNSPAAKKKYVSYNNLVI
T1 sequence (P35349 whole entry): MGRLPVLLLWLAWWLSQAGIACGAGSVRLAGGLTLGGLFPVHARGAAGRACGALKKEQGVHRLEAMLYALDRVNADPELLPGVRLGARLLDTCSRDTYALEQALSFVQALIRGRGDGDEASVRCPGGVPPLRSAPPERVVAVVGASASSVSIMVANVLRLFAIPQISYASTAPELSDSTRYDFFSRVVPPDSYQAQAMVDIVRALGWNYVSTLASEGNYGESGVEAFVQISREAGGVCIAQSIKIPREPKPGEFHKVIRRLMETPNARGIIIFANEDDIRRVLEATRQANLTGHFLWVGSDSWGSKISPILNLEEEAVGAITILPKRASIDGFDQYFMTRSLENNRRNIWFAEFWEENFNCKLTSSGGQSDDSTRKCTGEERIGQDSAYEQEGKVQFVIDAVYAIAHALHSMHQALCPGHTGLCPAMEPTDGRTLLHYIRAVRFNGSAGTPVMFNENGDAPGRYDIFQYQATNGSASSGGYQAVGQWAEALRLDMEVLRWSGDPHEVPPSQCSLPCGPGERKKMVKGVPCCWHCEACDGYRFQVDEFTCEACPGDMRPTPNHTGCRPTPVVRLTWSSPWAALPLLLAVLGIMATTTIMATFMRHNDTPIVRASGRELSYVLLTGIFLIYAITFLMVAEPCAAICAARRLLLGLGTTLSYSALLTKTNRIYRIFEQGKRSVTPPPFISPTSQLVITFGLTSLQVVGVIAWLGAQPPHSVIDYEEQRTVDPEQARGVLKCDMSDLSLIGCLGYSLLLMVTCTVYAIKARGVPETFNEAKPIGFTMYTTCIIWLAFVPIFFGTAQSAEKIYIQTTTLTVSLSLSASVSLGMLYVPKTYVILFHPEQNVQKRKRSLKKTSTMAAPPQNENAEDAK
Sequence of Metabotropic glutamate receptor 2 (P31421 whole entry): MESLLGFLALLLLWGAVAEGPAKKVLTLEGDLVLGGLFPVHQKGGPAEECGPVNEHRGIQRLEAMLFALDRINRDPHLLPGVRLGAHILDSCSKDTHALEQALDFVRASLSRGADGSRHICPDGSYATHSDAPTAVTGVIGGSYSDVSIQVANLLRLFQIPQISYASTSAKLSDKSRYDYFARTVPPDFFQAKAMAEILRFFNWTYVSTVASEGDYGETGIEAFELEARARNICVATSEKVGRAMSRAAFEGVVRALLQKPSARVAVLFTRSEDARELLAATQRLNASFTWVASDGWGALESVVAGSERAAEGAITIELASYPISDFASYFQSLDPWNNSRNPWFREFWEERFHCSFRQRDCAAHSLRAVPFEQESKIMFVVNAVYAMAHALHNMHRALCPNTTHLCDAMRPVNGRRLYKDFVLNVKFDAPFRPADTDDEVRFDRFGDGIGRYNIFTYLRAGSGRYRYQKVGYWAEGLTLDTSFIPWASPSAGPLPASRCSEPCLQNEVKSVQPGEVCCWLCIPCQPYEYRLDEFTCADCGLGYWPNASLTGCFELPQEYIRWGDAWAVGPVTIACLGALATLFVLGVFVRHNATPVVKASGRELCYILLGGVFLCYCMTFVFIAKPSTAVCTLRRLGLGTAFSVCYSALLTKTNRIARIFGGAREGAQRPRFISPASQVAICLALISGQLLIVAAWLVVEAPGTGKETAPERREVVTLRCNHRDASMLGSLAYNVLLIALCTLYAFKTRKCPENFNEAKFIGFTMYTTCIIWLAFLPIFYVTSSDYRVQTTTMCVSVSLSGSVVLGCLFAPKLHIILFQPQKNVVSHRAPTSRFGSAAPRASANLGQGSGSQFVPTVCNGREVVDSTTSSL
T2 sequence (P70579 whole entry): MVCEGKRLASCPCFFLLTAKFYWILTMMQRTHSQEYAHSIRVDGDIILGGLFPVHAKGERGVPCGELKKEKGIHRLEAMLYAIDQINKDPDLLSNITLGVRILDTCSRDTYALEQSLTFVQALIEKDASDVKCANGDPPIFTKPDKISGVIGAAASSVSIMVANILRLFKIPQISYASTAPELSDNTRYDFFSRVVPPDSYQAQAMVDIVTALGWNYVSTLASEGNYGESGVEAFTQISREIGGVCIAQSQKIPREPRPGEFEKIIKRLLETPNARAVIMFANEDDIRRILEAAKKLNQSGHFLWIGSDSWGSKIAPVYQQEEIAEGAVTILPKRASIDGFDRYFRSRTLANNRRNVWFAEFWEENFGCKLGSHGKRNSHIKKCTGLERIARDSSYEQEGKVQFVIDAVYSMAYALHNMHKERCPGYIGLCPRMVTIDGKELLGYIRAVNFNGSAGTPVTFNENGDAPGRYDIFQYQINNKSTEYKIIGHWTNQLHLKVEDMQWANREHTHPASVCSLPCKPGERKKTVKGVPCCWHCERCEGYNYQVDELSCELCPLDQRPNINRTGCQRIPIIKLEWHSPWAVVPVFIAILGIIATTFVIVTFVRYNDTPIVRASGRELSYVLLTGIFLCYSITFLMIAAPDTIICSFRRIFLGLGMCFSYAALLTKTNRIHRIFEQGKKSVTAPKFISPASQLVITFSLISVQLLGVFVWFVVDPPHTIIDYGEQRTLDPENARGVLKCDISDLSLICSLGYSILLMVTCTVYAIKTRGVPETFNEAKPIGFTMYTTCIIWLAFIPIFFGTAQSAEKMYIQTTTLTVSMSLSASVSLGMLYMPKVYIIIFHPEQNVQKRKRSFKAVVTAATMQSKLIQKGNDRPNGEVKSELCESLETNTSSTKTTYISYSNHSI

EC50 [9] [µM] | EC50 [10] [µM] | EC50 [11] [µM] | EC50 [12] [µM] | SMILES | EC50 [1] [µM] | EC50 [2] [µM] | EC50 [3] [µM] | EC50 [4] [µM] | EC50 [5] [µM] | EC50 [6] [µM] | EC50 [7] [µM] | EC50 [8] [µM]
 |  |  |  | N[C@H](C(=O)O)c1ccc(C(=O)O)c(C(=O)O)c1 | > 100 | 32 | 3.6 | > 100 | 0.031 | > 100 | > 100 | 8.8
 |  |  |  | N[C@H](C(=O)O)[C@H]1[C@H](CC(=O)O)[C@@H]1C(=O)O | > 100 | > 100 |  |  |  |  | 0.3 | 
 |  |  |  | N[C@H](C(=O)O)[C@H]1C[C@@H]1C(=O)O | 17 | 23 | 0.6 | 0.6 | 0.4 | 47 | 0.3 | 4
40 | 23 | 32 | 40 | N[C@H](C(=O)O)C1[C@@H](C(=O)O)[C@@H]1C(=O)O (some centres undefined) | 389 | > 100 |  | 0.2 |  |  |  | 
 |  |  |  | C[C@H]1[C@H](C(=O)O)[C@H]1[C@H](N)C(=O)O | > 100 | > 100 | 1.2 | 0.038 | 1.32 | > 100 | 0.008 | > 100
 |  |  |  | N[C@@H](CCP(=O)(O)O)C(=O)O | > 100 | > 100 | 0.055 | > 100 | 0.06 | 175 | 448 | 0.32
 |  |  |  | N[C@H](C(=O)O)[C@H]1[C@@H](CC(=O)O)[C@@H]1C(=O)O | > 100 | > 100 |  |  |  |  | 0.1 | 
 |  |  |  | N[C@H](C(=O)O)[C@@H]1[C@@H](C(=O)O)C1(F)F |  |  |  |  |  |  | 0.09 | 
 |  |  |  | NC(C(=O)O)c1ccc(P(=O)(O)O)cc1 (racemic) | > 500 | > 500 | 4.7 | > 200 | 0.21 | 185 | > 300 | 5.2
